The values below come from article PMC4601023, “Novel anticancer agent, SQAP, binds to focal adhesion kinase and modulates its activity” (Scientific Reports, 2015).

Structures are written as SMILES.

Assay type in all cases: cell-based, human
One series relates to A549 cells. Put plainly: WST-8 cell viability assay, A549. The settings on record: A549, 46 h, SQAP 10 and 20 µM. On the procedure:
HUVEC and A549 cells were seeded into a 96-well culture plate (2 × 10^4 cells/well). The following day, cells were treated with SQAP or vehicle in a medium containing 1% FBS and VEGF (50 ng/mL) for 17 h (HUVEC) or fibronectin (10 μg/mL) for 46 h (A549). Cell viability was measured using Cell Count Reagent SF (Nacalai Tesque, Kyoto, Japan) following the manufacturer’s instructions. Briefly, 1/10 volume of the WST-8 solution was added to each well, and the plates were incubated at 37 °C for 1 h. Then, cell viability was determined colorimetrically by measuring OD450 using a microplate reader on a Wallac ARVO 5X microplate reader (Perkin Elmer, Waltham, MA, USA).
control SQAP 10 µM SQAP 20 µM
Livecellswere measured with SF reagent under similarconditionsas describedin thewound healing
assayinFig.5. (A)HUVEC and (B)A549 cells.
(also on this page, place not known: Cell viability (%) Cell viability (%) Live cells were similar conditions as described in the wound assay in Fig. 5. (A) HUVEC (B) A549)
For orientation: Tetrazolium assays rely on reduction of a dye to a coloured formazan, in cell work by metabolically active cells.

The subject of series [1] is FAK phosphorylation (Y397, Y925) in HUVEC cells. Put plainly: FAK phosphorylation level in HUVEC, Western blotting. On the procedure: HUVEC cells were incubated for 20 h in serum-free medium in 60 mm dishes. SQAP, SQMG or SQP was added and incubated for 30 min followed by addition of 50 ng/mL VEGF (RD systems, Minneapolis, MN. USA) and incubation for another 30 min. FAK phosphorylation level was analyzed by Western blotting as described in the next section.
Cells were harvested and solubilized in RIPA buffer (20 mM Tris-HCl, pH 7.5, 1% Sodium deoxycholate, 150 mM NaCl, 5 mM EDTA, 1% Triton X-100, 0.1% SDS, 0.1%, 1 mM PMSF, 1 mM vanadate and 1 μg/mL leupeptin). Protein quantification was determined using the DC protein assay kit (Bio-Rad, Hercules, CA, USA). A total of 15 μg of each protein sample were separated by SDS–PAGE gels and blotted onto polyvinylidene difluoride membranes (Merck, Kenilworth, NJ, US). After blocking for 1 h with Blocking-One (Nacalai Tesque, Kyoto, Japan), proteins were detected by incubating the membranes with the primary antibody at 4 °C overnight (anti-Y397 2:2000, anti-Y925 5:2000 and anti-FAK 0.5:2000) followed by incubation with horseradish peroxidase-conjugated secondary antibodies at room temperature for 1 h (anti-mouse 0.5:2000 and anti-rabbit 0.4:2000).

Series [2] deals with VEGF mRNA expression in HUVEC cells. The experiment in a line: VEGF mRNA expression, quantitative real-time RT-PCR, HUVEC. To be noted: 6 h SQAP treatment. On the procedure:
Figure 5 Effect of SQAP on FAK phosphorylation. The level of FAK phosphorylated at Y397 and Y925 was evaluated by Western blotting. (A) HUVEC cells were serum-depleted for 20 h before treatment with SQAP or vehicle for 30 min followed by treatment with or without VEGF (50 ng/mL) for 30 min. (B) HUVEC cells were cultured as stated in section A and then treated with SQAP, SQMG or SQP. (C) A549 cells were serum-deprived for 48 h before pretreatment with SQAP or vehicle followed by treatment with or without fibronectin (10 μg/mL) for 30 min. (D) A549 cells were cultured as stated in section C and then treated with SQAP, SQMG or SQP. (E–F) HUVEC and A549 cells were treated with SQAP for 6 h before adding an RNA stabilization reagent and prepared for Quantitative real-time RT-PCR.
Total RNA was prepared using an RNeasy Mini Kit (QIAGEN Inc., Hilden, Germany) according to the manufacturer’s instructions and then reverse-transcribed to cDNA with Transcriptor First Strand cDNA Synthesis Kit (Roche Applied Science, Mnnheim, Germany). Measurement of gene expression by quantitative analysis was performed using the LightCycler system (Roche Applied Science). Quantitative real-time RT-PCR analysis of β-actin, TSP-1 and VEGF-A expression were performed using the LightCycler FastStart DNA MasterPLUS SYBR Green I system (Roche Applied Science). […]

As for `CCCCCCCCCCCCCCCCCC(=O)OCCCO[C@H]1O[C@H](CS(=O)(=O)O)[C@@H](O)[C@H](O)[C@H]1O` [SQAP, sulfoquynovosylacylpropanediol], in the series on A549 cells, the “cytotoxicity (WST-8 cell viability)” value is listed as “noncytotoxic”. Also, the “phosphorylation level of FAK at Y397 and at Y925 after VEGF stimulation” value in series [1] (VEGF 50 ng/mL, 1 h) was “appreciably reduced”. Further, the “phosphorylation of FAK in the absence of VEGF” value in series [1] (no VEGF, within 1 h) was “inhibited”. Besides, the “VEGF production level (mRNA, RT-PCR)” value in series [2] is “reduced”.
